Data reported in patent publication US6444850B1, “Fungicidial compounds having a fluorovinyloxphyenyl moiety and process for the preparation thereof” (priority 1997, dated 2002).

How the values were obtained:
[1] = tested on: Rhizoctonia solani AG-1; assay: Fungicidal activity against rice sheath blight (RSB) disease; settings: 50 ppm, control value
[2] = tested on: Botrytis cinerae; assay: Fungicidal activity against cucumber gray mold rot (CGM) disease; assay type: in vivo; settings: 50 ppm, control value
Method: Botrytis cinerae, which was isolated from cucumber infected thereby, was inoculated on a PDA agar medium and cultured under a 12L/12D cycle at 25° C. for 15 days to form spore. The spores were scraped, filtered through a gauze and then suspended in potato dextrose liquid medium at a concentration of 1×10^6 spore/ml. The spore suspension was sprayed on a cucumber plant having one leaf. The cucumber plant was held in a humidified room at 20° C. for 3 days. L.A. on a leaf was measured to calculate an C.V.

[3] = tested on: Pyricularia oryzae Carvara KA301; assay type: in vivo; settings: for C. V. (%) Fungicidal Activities against RCB at 10 ppm / C. V. (%) Fungicidal Activities against RCB at 10 ppm (TABLE 6): sprayed on Nakdong rice plant, control value from lesion area; for C. V. (%) RCB: 50 ppm, control value, rice blast
[4] = tested on: Erysiphae graminis; assay: Fungicidal activity against barley powdery mildew (BPM) disease; assay type: in vivo; settings: for C. V. (%), Fungicidal activities against TLB at 10 ppm: Table 9 (Test Example 6); for C. V. (%) BPM: 50 ppm, control value, barley powdery mildew
Method: Erysiphae graminis was subcultured on a wheat plant in a laboratory. 15 g of barley seeds was sowed in a pot (diameter 6.5 cm) and cultured in a greenhouse for 7 days to obtain a barley plant having only a primary leaf. The barley plant was inoculated with spores by shaking thereover another plant infected by BPM. The inoculated barley plant was cultured in an incubator maintained at a temperature of 22 to 24° C. and a relative humidity of 50% for 7 days to induce BPM. L.A. on the leaf was measured to calculate an C.V.

[5] = tested on: Phytophthora infestans; assay type: in vivo; settings: 50 ppm; control value, tomato late blight
[6] = tested on: Puccinia recondita; assay: Fungicidal activity against wheat leaf rust (WLR) disease; assay type: in vivo; settings: for C. V. (%), Fungicidal Activities against WLB at 10 ppm: Table 8 (Test Example 5); for C. V. (%) WLR: 50 ppm, control value, wheat leaf rust

SMILES | C. V. (%) RSB [1] | C. V. (%) CGM [2] | C. V. (%) Fungicidal Activities against RCB at 10 ppm [3] | C. V. (%) Fungicidal Activities against RCB at 10 ppm (TABLE 6) [3] | C. V. (%) RCB [3] | C. V. (%), Fungicidal activities against TLB at 10 ppm [4] | C. V. (%) BPM [4] | C. V. (%) TLB [5] | C. V. (%), Fungicidal Activities against WLB at 10 ppm [6] | C. V. (%) WLR [6]
CNC(=O)C(=NOC)c1ccccc1COc1cccc(OC(F)=C(c2cc(Cl)cc(Cl)c2)C(F)(F)F)c1 [Compound 104] | 50% | 0% | 98% | 98% | 100% | 100% | 100% | 0% | 100% | 100%
CON=C(C(=O)OC)c1ccccc1COc1cccc(OC(F)=C(c2ccc(OC)cc2)C(F)(F)F)c1 [Compound 76] | 90% | 0% |  |  | 63% | 96% | 99% | 44% | 99% | 96%
CNC(=O)C(=COC)c1ccccc1COc1cccc(OC(F)=C(c2ccc(C)cc2)C(F)(F)F)c1 [Compound 54] | 20% | 9% |  |  | 16% |  | 41% | 20% |  | 16%
CCCCc1ccc(C(=C(F)Oc2cccc(OCc3ccccc3C(=COC)C(=O)OC)c2)C(F)(F)F)cc1 [Compound 62] | 35% | 28% |  |  | 0% |  | 98% | 3% |  | 93%
CON=C(C(=O)OC)c1ccccc1COc1cccc(OC(F)=Cc2cccc(C)c2)c1 [Compound 8] | 92% | 51% | 90% | 90% | 100% | 93% | 97% | 92% | 90% | 98%
CNC(=O)C(=COC)c1ccccc1COc1cccc(OC(F)=Cc2ccc(C)c(C)c2)c1 [Compound 14] | 5% | 63% |  |  | 16% |  | 25% | 20% |  | 16%
CON=C(C(=O)OC)c1ccccc1COc1cccc(OC(F)=C(c2cccc(OC)c2)C(F)(F)F)c1 [Compound 73] | 92% | 9% |  |  | 93% | 88% | 93% | 60% | 96% | 98%
COC(=O)C(=CSC)c1ccccc1COc1cccc(OC(F)=Cc2cccc(OC)c2)c1 [Compound 28] | 70% | 21% |  |  | 93% |  | 97% | 73% |  | 91%
CNC(=O)/C(=N/OC)c1ccccc1COc1cccc(OC(F)=C(c2ccc(C)c(C)c2)C(F)(F)F)c1 [Compound 66] | 40% | 0% | 100% | 100% | 98% | 100% | 100% | 18% | 100% | 100%
CCCCCCC(=C(F)Oc1cccc(OCc2ccccc2C(=COC)C(=O)OC)c1)C(F)(F)F [Compound 106] | 45% | 0% |  |  | 0% | 100% | 100% | 0% | 91% | 98%
CON=C(C(=O)OC)c1ccccc1COc1cccc(OC(F)=C(c2ccc(F)cc2)C(F)(F)F)c1 [Compound 98] | 65% | 0% |  |  | 33% | 98% | 100% | 25% | 96% | 100%
